Measurements reported in patent US7304174B2, “CaSR antagonist” (Japan Tobacco Inc., priority 2003, dated 2007).

target: T1, human calcium receptor (Homo sapiens, UniProt P41180); assay: Evaluation of antagonistic action on calcium receptor using reporter gene (luciferase); type: cell-based; conditions: transformed rat adrenal derived cells, 5 mM calcium chloride, culture 4 hrs, luciferase activity; read-out: Reporter gene assay (IC50, concentration showing 50% inhibitory rate)
T1 construct: expressed in transfected cells; host or cells: cell strain derived from rat adrenal, co-transformed with luciferase cDNA
T1 sequence (P41180 20-1078): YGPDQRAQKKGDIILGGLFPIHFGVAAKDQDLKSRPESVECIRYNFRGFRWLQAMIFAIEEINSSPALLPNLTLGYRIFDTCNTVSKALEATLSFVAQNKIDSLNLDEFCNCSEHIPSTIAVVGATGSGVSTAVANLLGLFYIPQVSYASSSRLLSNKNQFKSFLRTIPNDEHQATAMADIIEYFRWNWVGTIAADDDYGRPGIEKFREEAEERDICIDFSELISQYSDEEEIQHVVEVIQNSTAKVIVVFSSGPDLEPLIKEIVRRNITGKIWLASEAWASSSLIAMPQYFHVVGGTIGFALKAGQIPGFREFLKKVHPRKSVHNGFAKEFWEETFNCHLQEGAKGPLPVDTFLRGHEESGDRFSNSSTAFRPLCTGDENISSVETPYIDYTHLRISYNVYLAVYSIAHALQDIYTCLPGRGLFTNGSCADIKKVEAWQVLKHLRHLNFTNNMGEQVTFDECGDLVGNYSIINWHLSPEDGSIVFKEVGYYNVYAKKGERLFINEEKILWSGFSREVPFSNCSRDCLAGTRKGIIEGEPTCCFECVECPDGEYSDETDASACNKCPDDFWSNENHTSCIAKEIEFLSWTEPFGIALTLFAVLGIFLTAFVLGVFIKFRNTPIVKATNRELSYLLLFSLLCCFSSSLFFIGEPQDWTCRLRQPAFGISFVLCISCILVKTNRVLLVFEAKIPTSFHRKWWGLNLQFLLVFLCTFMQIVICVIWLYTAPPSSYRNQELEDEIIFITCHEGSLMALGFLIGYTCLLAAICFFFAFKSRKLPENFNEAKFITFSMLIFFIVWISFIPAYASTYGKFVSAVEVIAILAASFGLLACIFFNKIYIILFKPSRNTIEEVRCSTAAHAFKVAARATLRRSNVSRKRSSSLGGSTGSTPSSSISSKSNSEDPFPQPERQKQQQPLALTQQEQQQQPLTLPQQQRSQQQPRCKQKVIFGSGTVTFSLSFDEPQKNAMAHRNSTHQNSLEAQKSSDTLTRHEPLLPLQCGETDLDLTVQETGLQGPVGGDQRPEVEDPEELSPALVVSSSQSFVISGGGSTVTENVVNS
How it was run: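 Rat adrenal-derived cells transfected with luciferase and human calcium receptor cDNA, in F12 with 0.5% dialyzed horse serum and 0.25% dialyzed fetal bovine serum. Luciferase luminescence gave % inhibition vs control and blank; IC50 at 50% inhibition.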

Row | IC50 | Structure (SMILES)
1 | 9 nM | C[C@@H](OC[C@H](O)CNC(C)(C)Cc1ccc2ccccc2c1)c1ccccc1-c1ccc(CO)c(C(=O)O)c1 [Example 1-44, 4-(hydroxymethyl)-2′-[1-[(2R)-3-[[1-(naphthalen-2-yl)-2-methylpropan-2-yl]amino]-2-hydroxypropoxy]ethyl]biphenyl-3-carboxylic acid]
2 | 22 nM | CC(OC[C@H](O)CNC(C)(C)Cc1ccc(Cl)cc1F)c1ccccc1Oc1ccc(C(=O)O)cc1 (stereo partly drawn) [Example 2-6, 4-[2-[1-[(2R)-3-[[1-(4-chloro-2-fluorophenyl)-2-methylpropan-2-yl]amino]-2-hydroxypropoxy]ethyl]phenoxy]benzoic acid]
3 | 3 nM | Cc1cc(-c2ccccc2[C@@H](C)OC[C@H](O)CNC(C)(C)Cc2ccc(C)c(F)c2F)ccc1C(=O)O [Example 1-5, 2′-[1-[(2R)-3-[[1-(2,3-difluoro-4-methylphenyl)-2-methylpropan-2-yl]amino]-2-hydroxypropoxy]ethyl]-3-methylbiphenyl-4-carboxylic acid]
4 | 5 nM | C[C@@H](OC[C@H](O)CNC(C)(C)Cc1ccc2ccccc2c1)c1ccccc1-c1ccc(C(=O)O)c(N)c1 [Example 1-70, 3-amino-2′-[1-[(2R)-3-[[1-(naphthalen-2-yl)-2-methylpropan-2-yl]amino]-2-hydroxypropoxy]ethyl]biphenyl-4-carboxylic acid]
5 | 271 nM | Cc1cc(-c2ccccc2[C@@H](C)OC[C@H](O)CNC(C)(C)Cc2cc(F)ccc2F)ccc1C(=O)O [Example 1-89, 2′-[1-[(2R)-3-[[1-(2,5-difluorophenyl)-2-methylpropan-2-yl]amino]-2-hydroxypropoxy]ethyl]-3-methylbiphenyl-4-carboxylic acid]
6 | 18 nM | Cc1cc(-c2ccccc2[C@H](OC[C@H](O)CNC(C)(C)Cc2ccc3ccccc3c2)C2CC2)ccc1C(=O)O [Example 1-11, 2′-[(cyclopropyl)[(2R)-3-[[1-(naphthalen-2-yl)-2-methylpropan-2-yl]amino]-2-hydroxypropoxy]methyl]-3-methylbiphenyl-4-carboxylic acid]
7 | 7 nM | CC(OC[C@H](O)CNC(C)(C)Cc1ccc2ccccc2c1)c1ccccc1-c1ccc(C(=O)O)c(C(F)(F)F)c1 (stereo partly drawn) [Example 1-28, 2′-[1-[(2R)-3-[[1-(naphthalen-2-yl)-2-methylpropan-2-yl]amino]-2-hydroxypropoxy]ethyl]-3-(trifluoromethyl)biphenyl-4-carboxylic acid]
8 | 23 nM | Cc1cc(C(=O)O)ccc1-c1ccccc1[C@@H](C)OC[C@H](O)CNC(C)(C)Cc1ccc2ccccc2c1 [Example 1-54, 2-methyl-2′-[1-[(2R)-3-[[1-(naphthalen-2-yl)-2-methylpropan-2-yl]amino]-2-hydroxypropoxy]ethyl]biphenyl-4-carboxylic acid]
9 | 15 nM | CCc1ccc(CC(C)(C)NC[C@@H](O)CO[C@H](C)c2ccccc2-c2ccc(C(=O)O)c(C)c2)cc1F [Example 1-8, 2′-[1-[(2R)-3-[[1-(4-ethyl-3-fluorophenyl)-2-methylpropan-2-yl]amino]-2-hydroxypropoxy]ethyl]-3-methylbiphenyl-4-carboxylic acid]
10 | 28 nM | Cc1cc(-c2ccccc2[C@@H](C)OC[C@H](O)CNC(C)(C)Cc2ccc(C)c(C(F)(F)F)c2)ccc1C(=O)O [Example 1-104, 2′-[1-[(2R)-3-[[1-(3-trifluoromethyl-4-methylphenyl)-2-methylpropan-2-yl]amino]-2-hydroxypropoxy]ethyl]-3-methylbiphenyl-4-carboxylic acid]
11 | 13 nM | Cc1cc(C(=O)O)ccc1Oc1ccccc1C(C)OC[C@H](O)CNC(C)(C)Cc1ccc(Cl)c(F)c1 (stereo partly drawn) [Example 2-36, 4-[2-[1-[(2R)-3-[[1-(4-chloro-3-fluorophenyl)-2-methylpropan-2-yl]amino]-2-hydroxypropoxy]ethyl]phenoxy]-5-methylbenzoic acid]
